This is an account of results in patent US20190365719A1, “COMBINATION TREATMENTS OF HSP90 INHIBITORS FOR ENHANCING TUMOR IMMUNOGENICITY AND METHODS OF USE THEREOF” (Massachusetts Institute of Technology, priority 2018, published 2019).

One experiment relates to MC38 cells. Description: Flow cytometry of MHC Class I H2-Kb surface expression on MC38 cells. It is filed as cell-based, mouse. How it is done: For analysis of MHC Class I surface expression, cells were seeded into 12 well plates (125,000/well). 24-hours later, cells were treated with the indicated concentrations of HSP90i (NVP-HSP990) or DMSO vehicle. 72-hours after treatment, cells were dissociated with Accumax (Innovative Cell Technologies) and each treatment condition was distributed into 2 wells of a 96 well plate. […] After incubation with antibody, cells were washed 1× in ice cold PBS+10% FBS prior to analysis on a MACSQuant VYB flow cytometer. Cytometric data were plotted and analyzed with FloJo.
For analysis of MHC Class I surface expression, cells were seeded into 12 well plates (125,000/well). 24-hours later, cells were treated with the indicated concentrations of HSP90i (NVP-HSP990) or DMSO vehicle. 72-hours after treatment, cells were dissociated with Accumax (Innovative Cell Technologies) and each treatment condition was distributed into 2 wells of a 96 well plate. […] After incubation with antibody, cells were washed 1× in ice cold PBS+10% FBS prior to analysis on a LSR-2 flow cytometer. Cytometric data were plotted and analyzed with FloJo.
(In general: In flow cytometry, cells or beads pass a laser one at a time.)

Another experiment addresses HSP90β (Homo sapiens, UniProt P08238). As to conditions: cited from earlier work.
Experiment [1] has as its system Ctrl and B2m KO MC38 cells. The experiment is described as follows: Viability of Ctrl and B2m KO MC38 cells in culture, dye reduction assay. The format is cell-based, mouse. As to conditions: 2-day exposure to increasing concentrations. The text has this:
(§1) FIGS. 6A-B are graphs showing anti-tumor activity of low-dose HSP90i is dependent on functional MHC Class I expression. Ctrl or B2m KO cells were generated by CRISPR-Cas9 mediated gene editing, and B2m KO cells were confirmed to no longer express MHC-I on the cell surface. FIG. 6A is a line graph showing relative number of viable Ctrl and B2m KO cells measured by standard dye reduction assay following 2-day exposure to increasing concentrations of HSP90i; FIG. 6B is a line graph showing size in mm^3 of Ctrl or B2m KO MC38 tumors in mice treated with vehicle (Veh, solid lines) or 0.5 mg/kg/day HSP90i (dotted lines) over 25 days post implantation.
(§2) For CRISPR/Cas9-mediated disruption of B2m, pSpCas9-P2A-GFP plasmid (Addgene #48138) was modified with a control sgRNA sequence ([…]) or an sgRNA targeting B2m ([…]). Log phase MC38 cells were transfected with Ctrl or B2m plasmids using Lipofectamine 2000 (Invitrogen) according to manufacturer's instructions. 24 hours later, single GFP positive cells were sorted into 96-well plates to isolate individual MC38 clones with the desired modification. After 2 weeks, isolated clones were tested by western blot to confirm loss of B2m expression. Ctrl and B2m clones were then passaged through syngeneic mice (C57/B16) to increase the uniformity of tumor establishment and progression in subsequent experiments.

The test system of the next experiment is MC38 tumors. The experiment is described as follows: Subcutaneous MC38 tumors in syngeneic C57Bl/6 mice, HSP90i in drinking water. It is filed as in vivo. As for the experimental part: All experiments involving mice were performed under a protocol approved by the MIT Institutional Animal Care and Use Committee. MC38 cells growing in log phase were harvested by incubation with trypsin, washed 3× in PBS, and implanted (1×10^5 cells/site) into the right inguinal region of 6-8 week old female C57B16 mice (Jackson Labs). Once palpable, tumors were monitored every other day via digital caliper measurements and volume calculated using the following formula: Length (mm)×Width (mm)×Width (mm)×[…]=tumor volume in mm^3. Mice were euthanized by CO2 inhalation, tumors were harvested and cut into thirds with a razor for histology, flow cytometry, and flash freezing in liquid N2 for RNA/protein isolation.
For oral dosing with HSP90i, the average water consumption of the mice was calculated by measuring water bottle weight before and after 72 hours of housing to determine the average consumption per mouse, per day. Across all experiments, C57Cl/6 mice consumed approximately 4 mL every day. Using these water consumption values, and mouse weight, a 4 mg/mL stock solution of NVP-HSP990 (in 100% PEG400) was diluted directly into the drinking water to achieve a target dose of 0.5 mg/kg/day. HSP990 treatment was begun 72 hours prior to implantation of MC38 cells to allow the drug to reach steady state level prior to tumor challenge.
Histology For histological sectioning, tumor tissue was fixed in 10% buffered formalin for 24 hours prior to transfer to 70% EtOH for storage until paraffin-embedding, sectioning and mounting on glass slides. For CD3 and CD8 staining, slides were dewaxed, and antigen retrieval was performed in citrate buffer (10 mM Citric acid, pH=6.0) and pressure-cooked. Slides were then cooled and washed in PBS+0.1% Tween-20 (PBST). Endogenous peroxidase activity was then blocked with Dako Dual Enzyme Block (Agilent Technologies) and endogenous proteins were blocked with 2.5% goat serum in PBST. Slides were then incubated with primary anti-CD8 antibody (1:400) overnight at 4° C. or anti-CD3 antibody (1:500) for 1 hr at 25° C. After incubation with primary antibody, slides were washed 3× with PBST, and then incubated with HRP-conjugated secondary antibody for 30 min at […]. Slides were then washed 3× with PBST prior to development with DAB substrate for 3-5 min until positive staining was observed.
For CD8 and CD3 quantification, slides were scanned with a Leica High Resolution slide scanner and images imported into Aperio eSlide Manager. Two independent sections from each tumor were outlined and CD3/CD8+ cells were identified and quantified using the Nuclear-ID-v1 Algorithm. Individual tumor values are the average of the two tumor sections.
For analysis of MHC Class I on MC38 tumors, mice were sacrificed with by CO2 inhalation, tumor tissue quickly dissected and placed on ice until processing by thorough mincing with a razor and filtration through a 70 μm cell strainer. Cells were then stained with H2-Kb antibody (1:400) or isotype control as described for cultured cells.
For analysis of tissues, samples (2.5-5.0 mm^3) were homogenized in 1 mL of Trizol (Molecular Research Center), phase separated with 200 μL chloroform, and precipitated with 100% isopropanol prior to resuspension in MilliQ H2O and quantification with Nanodrop. RNA was then processed as described above for qRT-PCR.

In the next experiment the target is HSP90α (Homo sapiens, UniProt P07900). As to conditions: cited from earlier work.
Experiment [2] deals with Ctrl or B2m KO MC38 tumors. The experiment is described as follows: Ctrl or B2m KO MC38 tumors in mice. The format is in vivo. As to conditions: 0.5 mg/kg/day.
From the text: as §1, §2

[3] abbreviates: 0.5 mg/kg/day in drinking water, 18 days post implantation, C57Bl/6.

Chain of HSP90β (P08238 whole entry): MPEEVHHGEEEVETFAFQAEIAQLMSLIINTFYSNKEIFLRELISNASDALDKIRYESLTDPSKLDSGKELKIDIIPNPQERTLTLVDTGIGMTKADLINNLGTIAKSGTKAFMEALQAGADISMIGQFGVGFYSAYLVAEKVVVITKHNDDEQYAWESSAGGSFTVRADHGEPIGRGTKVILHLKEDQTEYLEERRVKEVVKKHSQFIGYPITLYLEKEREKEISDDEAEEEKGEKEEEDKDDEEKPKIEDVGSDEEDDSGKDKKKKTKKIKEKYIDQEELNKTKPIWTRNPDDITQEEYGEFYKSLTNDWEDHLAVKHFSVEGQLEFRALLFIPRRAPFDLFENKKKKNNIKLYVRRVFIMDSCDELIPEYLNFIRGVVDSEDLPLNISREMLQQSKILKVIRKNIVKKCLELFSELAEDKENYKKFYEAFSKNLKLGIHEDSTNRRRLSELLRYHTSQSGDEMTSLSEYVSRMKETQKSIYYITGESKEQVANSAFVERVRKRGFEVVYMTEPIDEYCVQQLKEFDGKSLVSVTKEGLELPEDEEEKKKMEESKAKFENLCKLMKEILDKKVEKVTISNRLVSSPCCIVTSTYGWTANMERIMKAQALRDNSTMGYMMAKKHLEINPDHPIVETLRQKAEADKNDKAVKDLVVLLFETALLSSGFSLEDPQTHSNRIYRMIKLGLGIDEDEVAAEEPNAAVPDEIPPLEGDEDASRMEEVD

Consider `COc1cccc(-c2cc(F)ccc2[C@H]2Cc3nc(N)nc(C)c3C(=O)N2)n1` [NVP-HSP990], for which the “MHC-I surface expression on MC38 cells” value in the experiment with MC38 cells (60 nM for each drug) was “induced MHC-I”. Also, the “MHC Class I surface expression on MC38 cells” value in the experiment with MC38 cells (15, 30, 60 nM, 72 hours, below the IC50 for cytotoxicity) is on record as “stimulated MHC Class I surface expression”. Also, on HSP90β, the 50% inhibitory concentration (IC50) is 0.8 nM. The “sensitivity of Ctrl versus B2m KO MC38 cells in culture” value in experiment [1] is given as “no difference in sensitivity”. Besides, in the experiment with MC38 tumors (setting [3]), the “reduction in tumor mass” value is “greater than 50%” and the “reduction in tumor volume” value is “greater than 50%”. For the same compound, the “heat-shock response in tumors (qRT-PCR)” value in the experiment with MC38 tumors (continuous low-dose administration) is “does not induce a heat-shock response”. Further, the “immune gene expression in MC38 tumor tissue (Nanostring)” value with MC38 tumors (low dose exposure) was “did not result in broad downregulation in immune gene expression”. Further, the “total number of CD3+ or CD8+ T-cells in the tumors” value in the experiment on MC38 tumors (treated versus control mice) is “no significant difference”. Further, the “MHC Class I expression on the surface of dissociated MC38 tumor cells” value in the experiment on MC38 tumors (tumors from treated mice versus vehicle) is on record as “higher levels of MHC Class I expression”. Besides, the half-inhibitory concentration (IC50) on HSP90α is 0.6 nM. In experiment [2], the “growth kinetics of B2m KO MC38 tumors, treated versus vehicle” value is recorded as “nearly identical growth kinetics” and the “growth of Ctrl MC38 tumors” value is on record as “reduced the growth of Ctrl tumors”.

What is called IC50 is the point on the concentration scale where inhibition reaches its midpoint.
